Data reported in the supplement of paper PMC11208160.

Assay: recombinant UMI read abundance after kanamycin selection (control-corrected) (log10(CPM+1)); higher = more efficient recombination; extreme values may be limits of the assay; sequences stand for … in AGTGCAGAGAAAATCGGCCAGTTTTCTCTGCCTGCAGTCCGCATGCCGTGGGACCCCTTGGGTTCTAACCTGTTGCCTAGATTTATGCAGCGGACTGCCTTTCTCCCAAAGTGATAAACCGG…AGGTTGGTTTCACT; site = the 11-nt donor
Outline: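 Two replicates each of selected and unselected plating were used in this pooled Escherichia coli screen of donor and donor-binding-loop pairs for the IS621 bridge recombinase. Selection was with IPTG (0.07 mM) and kanamycin. Counts of recombinant UMIs, amplified across the donor–target junction, were converted to CPM, averaged, scaled by control-derived factors and reported as log10(CPM+1).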
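Further: IS621 bridge recombinase in Escherichia coli cells against a fixed T5 target plasmid.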

| Sequence | recombinant UMI read abundance (log10) |
| --- | --- |
| GGCTACCCATGGACCGGTTTTCCCGGTAATCCGTATTTGTT (site GGCCACCCTAA) | 0.268 |
| GGCTACCCATGGACCGGTTTTCCCGGTAATCCGTATTTGTT (site GGCGACCCTAA) | 0.015 |
| GGCTACCCATGGACCGGTTTTCCCGGTAATCCGTATTTGTT (site GGCTACCCTAA) | 0.0101 |
| GGCTAGTCATGGACCGGTTTTCCCGGTAATCCGTATTTGAC (site GGCTAGTCTGT) | 0 |
| GGCTCGTCATGGACCGGTTTTCCCGGTAATCCGTATTTGCA (site GGCTCGTCTTG) | 2.16 |
| GGCTCTACATGGACCGGTTTTCCCGGTAATCCGTATTTGGC (site GGCTCTACTGC) | 0 |
| GGCTCTGCATGGACCGGTTTTCCCGGTAATCCGTATTTGCT (site GGCTCTGCTAG) | 1.66 |
| GGCTTAGCATGGACCGGTTTTCCCGGTAATCCGTATTTGAG (site GGCTTAGCTCT) | 1.13 |
| GGCTTGACATGGACCGGTTTTCCCGGTAATCCGTATTTGCG (site GGCTTGACTCG) | 0.919 |
| GGGAAGACATGGACCGGTTTTCCCGGTAATCCGTATTTGGA (site AGGAAGACTTG) | 0.00654 |
| GGGAAGACATGGACCGGTTTTCCCGGTAATCCGTATTTGGA (site GGGAAGACTTC) | 1.22 |
| GGGAAGACATGGACCGGTTTTCCCGGTAATCCGTATTTGGT (site GGGAAGACTAC) | 0.836 |
| GGGAAGCCATGGACCGGTTTTCCCGGTAATCCGTATTTGTT (site CGGAATCCTAA) | 0 |
| GGGAAGCCATGGACCGGTTTTCCCGGTAATCCGTATTTGTT (site GGGAAGCCTAA) | 0.0967 |
| GGGAAGGCATGGACCGGTTTTCCCGGTAATCCGTATTTGCA (site AGGAAGACTTG) | 0 |
| GGGAAGGCATGGACCGGTTTTCCCGGTAATCCGTATTTGCA (site GGGAAGGCTTG) | 2.86 |
| GGGAATCCATGGACCGGTTTTCCCGGTAATCCGTATTTGAT (site CGGAATCCTAA) | 0 |
| GGGAATCCATGGACCGGTTTTCCCGGTAATCCGTATTTGAT (site GGGAATCCTAT) | 0.145 |
| GGGAATCCATGGACCGGTTTTCCCGGTAATCCGTATTTGTT (site AGGAATCCTAA) | 0 |
| GGGAATCCATGGACCGGTTTTCCCGGTAATCCGTATTTGTT (site CGGAATCCTAA) | 0 |
| GGGAATCCATGGACCGGTTTTCCCGGTAATCCGTATTTGTT (site GGGAATCCTAA) | 0.192 |
| GGGAATCCATGGACCGGTTTTCCCGGTAATCCGTATTTGTT (site TGGAATCCTAA) | 0.0126 |
| GGGAATGCATGGACCGGTTTTCCCGGTAATCCGTATTTGGT (site GGGAATGCTAC) | 0.885 |
| GGGACACCATGGACCGGTTTTCCCGGTAATCCGTATTTGCA (site GGGACACCTTG) | 0 |
| GGGACACCATGGACCGGTTTTCCCGGTAATCCGTATTTGCA (site GGGCCACCTTG) | 0 |

| Sequence | recombinant UMI read abundance (log10) |
| --- | --- |
| GGGACACCATGGACCGGTTTTCCCGGTAATCCGTATTTGCA (site GGGGCACCTTG) | 0 |
| GGGACACCATGGACCGGTTTTCCCGGTAATCCGTATTTGCA (site GGGTCACCTTG) | 0 |
| GGGACGTCATGGACCGGTTTTCCCGGTAATCCGTATTTGAC (site GGGACGTCTGT) | 3.2 |
| GGGACGTCATGGACCGGTTTTCCCGGTAATCCGTATTTGCA (site GGGACGTCTTG) | 1.99 |
| GGGACGTCATGGACCGGTTTTCCCGGTAATCCGTATTTGGC (site GGGACGTCTGC) | 2.43 |
| GGGACTACATGGACCGGTTTTCCCGGTAATCCGTATTTGAC (site AGGACTACTGT) | 0 |
| GGGACTACATGGACCGGTTTTCCCGGTAATCCGTATTTGAC (site CGGACTACTGT) | 0 |
| GGGACTACATGGACCGGTTTTCCCGGTAATCCGTATTTGAC (site GGGACTACTGT) | 1.48 |
| GGGACTACATGGACCGGTTTTCCCGGTAATCCGTATTTGAC (site TGGACTACTGT) | 0 |
| GGGACTCCATGGACCGGTTTTCCCGGTAATCCGTATTTGAG (site TACGTATCTTC) | 0.0126 |
| GGGACTCCATGGACCGGTTTTCCCGGTAATCCGTATTTGCG (site GGGACTCCTCG) | 0.509 |
| GGGATAGCATGGACCGGTTTTCCCGGTAATCCGTATTTGTT (site GGGATAGCTAA) | 1.85 |
| GGGCAGGCATGGACCGGTTTTCCCGGTAATCCGTATTTGAG (site GGGCAGGCTCT) | 1.48 |
| GGGCAGGCATGGACCGGTTTTCCCGGTAATCCGTATTTGGG (site GGGCAGGCTCC) | 0.0905 |
| GGGCATACATGGACCGGTTTTCCCGGTAATCCGTATTTGAC (site GGGCATACTGT) | 1.8 |
| GGGCCGTCATGGACCGGTTTTCCCGGTAATCCGTATTTGTA (site GGGCCGTCTTA) | 0.733 |
| GGGCGATCATGGACCGGTTTTCCCGGTAATCCGTATTTGGC (site GGGCGATCTGC) | 1.98 |
| GGGGAGGCATGGACCGGTTTTCCCGGTAATCCGTATTTGAG (site GGGGAGGCTCT) | 0.897 |
| GGGGATTCATGGACCGGTTTTCCCGGTAATCCGTATTTGAT (site GGGGATTCTAT) | 1.72 |
| GGGGCACCATGGACCGGTTTTCCCGGTAATCCGTATTTGCA (site AGGGCACCTTG) | 0 |
| GGGGCACCATGGACCGGTTTTCCCGGTAATCCGTATTTGCA (site CGGGCACCTTG) | 0 |
| GGGGCACCATGGACCGGTTTTCCCGGTAATCCGTATTTGCA (site GAGGCACCTTG) | 0.00459 |
| GGGGCACCATGGACCGGTTTTCCCGGTAATCCGTATTTGCA (site GCGGCACCTTG) | 0 |
| GGGGCACCATGGACCGGTTTTCCCGGTAATCCGTATTTGCA (site GGAGCACCTTG) | 0 |
| GGGGCACCATGGACCGGTTTTCCCGGTAATCCGTATTTGCA (site GGCGCACCTTG) | 0 |

| Sequence | recombinant UMI read abundance (log10) |
| --- | --- |
| GGGGCACCATGGACCGGTTTTCCCGGTAATCCGTATTTGCA (site GGGACACCTTG) | 0 |
| GGGGCACCATGGACCGGTTTTCCCGGTAATCCGTATTTGCA (site GGGCCACCTTG) | 0.00389 |
| GGGGCACCATGGACCGGTTTTCCCGGTAATCCGTATTTGCA (site GGGGAACCTTG) | 0 |
| GGGGCACCATGGACCGGTTTTCCCGGTAATCCGTATTTGCA (site GGGGCAACTTG) | 0 |
| GGGGCACCATGGACCGGTTTTCCCGGTAATCCGTATTTGCA (site GGGGCACCTAG) | 0.0125 |
| GGGGCACCATGGACCGGTTTTCCCGGTAATCCGTATTTGCA (site GGGGCACCTCG) | 0.0103 |
| GGGGCACCATGGACCGGTTTTCCCGGTAATCCGTATTTGCA (site GGGGCACCTGG) | 0 |
| GGGGCACCATGGACCGGTTTTCCCGGTAATCCGTATTTGCA (site GGGGCACCTTA) | 0.011 |
| GGGGCACCATGGACCGGTTTTCCCGGTAATCCGTATTTGCA (site GGGGCACCTTC) | 0.0181 |
| GGGGCACCATGGACCGGTTTTCCCGGTAATCCGTATTTGCA (site GGGGCACCTTG) | 0 |
| GGGGCACCATGGACCGGTTTTCCCGGTAATCCGTATTTGCA (site GGGGCACCTTT) | 0.0161 |
| GGGGCACCATGGACCGGTTTTCCCGGTAATCCGTATTTGCA (site GGGGCAGCTTG) | 0 |
| GGGGCACCATGGACCGGTTTTCCCGGTAATCCGTATTTGCA (site GGGGCATCTTG) | 0 |
| GGGGCACCATGGACCGGTTTTCCCGGTAATCCGTATTTGCA (site GGGGCCCCTTG) | 0.0249 |
| GGGGCACCATGGACCGGTTTTCCCGGTAATCCGTATTTGCA (site GGGGCGCCTTG) | 0.0148 |
| GGGGCACCATGGACCGGTTTTCCCGGTAATCCGTATTTGCA (site GGGGCTCCTTG) | 0 |
| GGGGCACCATGGACCGGTTTTCCCGGTAATCCGTATTTGCA (site GGGGGACCTTG) | 0 |
| GGGGCACCATGGACCGGTTTTCCCGGTAATCCGTATTTGCA (site GGGGTACCTTG) | 0 |
| GGGGCACCATGGACCGGTTTTCCCGGTAATCCGTATTTGCA (site GGGTCACCTTG) | 0.0044 |
| GGGGCACCATGGACCGGTTTTCCCGGTAATCCGTATTTGCA (site GGTGCACCTTG) | 0 |
| GGGGCACCATGGACCGGTTTTCCCGGTAATCCGTATTTGCA (site GTGGCACCTTG) | 0.0102 |
| GGGGCACCATGGACCGGTTTTCCCGGTAATCCGTATTTGCA (site TGGGCACCTTG) | 0.00982 |
| GGGTCACCATGGACCGGTTTTCCCGGTAATCCGTATTTGCC (site GGGTCACCTGG) | 0 |
| GGTAATCCATGGACCGGTTTTCCCGGTAATCCGTATTTGTT (site CGGAATCCTAA) | 0.0139 |
| GGTAATCCATGGACCGGTTTTCCCGGTAATCCGTATTTGTT (site GGTAATCCTAA) | 0.518 |
